Literature values, collected in patent publication US20070183984A1, “CALCIUM PHOSPHATE SALTS IN ORAL COMPOSITIONS SUITABLE AS A TOOTH REMINERALIZING AGENT” (WM. WRIGLEY JR. COMPANY, priority 2006, published 2007).

conditions: g in about 100 ml of water at about 20° C.

| Compound | solubility in water |
| --- | --- |
| polyglutamic acid | about 5% |
| polyaspartic acid | about 5% |

Now from value to compound:

| solubility in water | Compound |
| --- | --- |
| about 0.6% | O=C(O)/C=C/C(=O)O [fumaric acid] |
| about 55% | O=C(O)CC(O)C(=O)O (stereo not drawn) [malic acid] |

conditions: octanol/water partition coefficient

| Log Pow | Compound |
| --- | --- |
| 0.08 | O=C(O)CCCCC(=O)O [adipic acid] |
| −1.26 | O=C(O)CC(O)C(=O)O (stereo not drawn) [malic acid] |
